# Laboratory results published in patent publication US20260262643A1, “HERBICIDAL BENZOXAZINES” (FMC CORPORATION, priority 2022, published 2026).
# Columns and labels:
# [1] = tested on: ryegrass, Italian; assay: Test C preemergence; type: in vivo, Lolium multiflorum; details: for Plant response rating, Ryegrass, Italian: Preemergence; for Ryegrass, Italian plant response rating: preemergence
# Outline: (§1)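 Seeds in loam–sand blend received preemergence directed soil spray of test chemicals in non-phytotoxic solvent with surfactant; postemergence treatment was applied at one- to two-leaf stage (2–10 cm). After 10 days in greenhouse, injury rated visually versus untreated controls, 0 (no effect) to 100 (complete control).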
# [2] = tested on: blackgrass; assay: Test C preemergence; type: in vivo, Alopecurus myosuroides; details: for Plant response rating, Blackgrass: Preemergence; for Blackgrass plant response rating: preemergence
# Outline: as §1
# [3] = tested on: soybean; assay: Test C postemergence; type: in vivo, Glycine max; details: 10 days
# Outline: as §1
# [4] = tested on: ducksalad; assay: Test D flooded paddy test; type: in vivo, Heteranthera limosa; details: 250 g ai/ha, applied to paddy water, visual rating after 13 to 14 days, scale 0 to 100 (0 no effect, 100 complete control)
# Outline: (§2)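 2-leaf plants; flood 3 cm above soil; compound dosed into paddy water; greenhouse 13–14 d; visual rating vs controls, 0–100 (100 = complete control); dash = not tested.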
# [5] = tested on: corn; assay: Test C postemergence; type: in vivo, Zea mays; details: 10 days
# Outline: as §1
# [6] = tested on: pigweed, palmer; assay: Test C preemergence; type: in vivo, Amaranthus palmeri; details: for Plant response rating, Pigweed, Palmer: Preemergence; for Pigweed, Palmer plant response rating: preemergence
# Outline: as §1
# [7] = tested on: galium; assay: Test C postemergence; type: in vivo, Galium aparine; details: 10 days
# Outline: as §1
# [8] = tested on: oat, wild; assay: Test C postemergence; type: in vivo, Avena fatua; details: 10 days
# Outline: as §1
# [9] = tested on: pigweed, palmer; assay: Test C postemergence; type: in vivo, Amaranthus palmeri; details: 10 days
# Outline: as §1
# [10] = tested on: kochia; assay: Test C preemergence; type: in vivo, Bassia scoparia; details: for Plant response rating, Kochia: Preemergence; for Kochia plant response rating: preemergence
# Outline: as §1
# [11] = tested on: soybean; assay: Test C preemergence; type: in vivo, Glycine max; details: for Plant response rating, Soybean: Preemergence; for Soybean plant response rating: preemergence
# Outline: as §1
# [12] = tested on: ryegrass, Italian; assay: Test C postemergence; type: in vivo, Lolium multiflorum; details: 10 days
# Outline: as §1
# [13] = tested on: ragweed; assay: Test C postemergence; type: in vivo, Ambrosia artemisiifolia; details: 10 days
# Outline: as §1
# [14] = tested on: kochia; assay: Test C postemergence; type: in vivo, Bassia scoparia; details: 10 days
# Outline: as §1
# [15] = tested on: barnyardgrass; assay: Test D flooded paddy test; type: in vivo, Echinochloa crus-galli; details: 250 g ai/ha, applied to paddy water, visual rating after 13 to 14 days, scale 0 to 100 (0 no effect, 100 complete control)
# Outline: as §2
# [16] = tested on: horseweed; assay: Test C postemergence; type: in vivo, Erigeron canadensis; details: 10 days
# Outline: as §1
# [17] = tested on: green foxtail; assay: Test C preemergence; type: in vivo, Setaria viridis; details: for Plant response rating, Foxtail, Green: Preemergence; for Foxtail, Green plant response rating: preemergence
# Outline: as §1
# [18] = tested on: green foxtail; assay: Test C postemergence; type: in vivo, Setaria viridis; details: 10 days
# Outline: as §1
# [19] = tested on: wheat; assay: Test C postemergence; type: in vivo, Triticum aestivum; details: 10 days
# Outline: as §1
# [20] = tested on: sedge, umbrella; assay: Test D flooded paddy test; type: in vivo, Cyperus difformis; details: 250 g ai/ha, applied to paddy water, visual rating after 13 to 14 days, scale 0 to 100 (0 no effect, 100 complete control)
# Outline: as §2
# [21] = tested on: barnyardgrass; assay: Test C preemergence; type: in vivo, Echinochloa crusgalli; details: for Plant response rating, Barnyardgrass: Preemergence; for Barnyardgrass plant response rating: preemergence
# Outline: as §1
# [22] = tested on: corn; assay: Test C preemergence; type: in vivo, Zea mays; details: for Plant response rating, Corn: Preemergence; for Corn plant response rating: preemergence
# Outline: as §1
# [23] = tested on: ragweed; assay: Test C preemergence; type: in vivo, Ambrosia artemisiifolia; details: for Plant response rating, Ragweed: Preemergence; for Ragweed plant response rating: preemergence
# Outline: as §1
# [24] = tested on: wheat; assay: Test C preemergence; type: in vivo, Triticum aestivum; details: for Plant response rating, Wheat: Preemergence; for Wheat plant response rating: preemergence
# Outline: as §1
# [25] = tested on: blackgrass; assay: Test C postemergence; type: in vivo, Alopecurus myosuroides; details: 10 days
# Outline: as §1
# [26] = tested on: barnyardgrass; assay: Test C postemergence; type: in vivo, Echinochloa crusgalli; details: 10 days
# Outline: as §1
# [27] = tested on: oat, wild; assay: Test C preemergence; type: in vivo, Avena fatua; details: for Plant response rating, Oat, Wild: Preemergence; for Oat, Wild plant response rating: preemergence
# Outline: as §1
# [28] = tested on: rice; assay: Test D flooded paddy test; type: in vivo, Oryza sativa; details: 250 g ai/ha, applied to paddy water, visual rating after 13 to 14 days, scale 0 to 100 (0 no effect, 100 complete control)
# Outline: as §2
# [29] = 500 g ai/ha, visual rating after 10 days, 0 to 100 scale (0 no effect, 100 complete control)
# [30] = Test C, 125 g ai/ha, 0 to 100 scale (0 no effect, 100 complete control)
# [31] = 125 g ai/ha, postemergence, 0 to 100 scale, 0 no effect, 100 complete control
# [32] = Postemergence, 500 g ai/ha, visual 0 to 100 scale (0 no effect, 100 complete control)
# [33] = 500 g ai/ha, 0 to 100 scale (0 no effect, 100 complete control)
# [34] = 125 g ai/ha, 0 to 100 scale, 0 no effect, 100 complete control
# [35] = 500 g ai/ha, postemergence, 0 to 100 scale (0 no effect, 100 complete control)
# [36] = Postemergence, 125 g ai/ha, 0 to 100 scale (0 no effect, 100 complete control)
smiles,measurement,setting,value
Cc1cccc2c1O[C@@H](C)CN2C(=O)c1cc(-n2cnc(C(C)C)n2)cc2occc12 [Compound 195],"Plant response rating, Ryegrass, Italian",[1]; [29],100
same,"Ryegrass, Italian plant response rating",[1]; [30],80
same,"Plant response rating, Blackgrass",[2]; [29],40
same,Blackgrass plant response rating,[2]; [30],30
same,"Plant response rating, Soybean",[3]; [31],100
same,"Plant response rating, Soybean",[3]; [32],100
same,"Plant response rating, Ducksalad (Flood)",[4],70
same,"Plant response rating, Corn",[5]; [31],50
same,"Plant response rating, Corn",[5]; [32],80
same,"Plant response rating, Pigweed, Palmer",[6]; [29],100
same,"Pigweed, Palmer plant response rating",[6]; [30],100
same,"Plant response rating, Galium",[7]; [31],90
same,"Plant response rating, Galium",[7]; [32],100
same,"Plant response rating, Oat, Wild",[8]; [31],10
same,"Plant response rating, Oat, Wild",[8]; [32],90
same,"Plant response rating, Pigweed, Palmer",[9]; [31],90
same,"Plant response rating, Pigweed, Palmer",[9]; [32],100
same,"Plant response rating, Kochia",[10]; [29],100
same,Kochia plant response rating,[10]; [30],70
same,"Plant response rating, Soybean",[11]; [29],100
same,Soybean plant response rating,[11]; [30],70
same,"Plant response rating, Ryegrass, Italian",[12]; [31],40
same,"Plant response rating, Ryegrass, Italian",[12]; [32],80
same,"Plant response rating, Ragweed",[13]; [31],70
same,"Plant response rating, Ragweed",[13]; [32],70
same,"Plant response rating, Kochia",[14]; [31],90
same,"Plant response rating, Kochia",[14]; [32],100
same,"Plant response rating, Barnyardgrass (Flood)",[15],45
same,"Plant response rating, Horseweed",[16]; [31],90
same,"Plant response rating, Horseweed",[16]; [32],70
same,"Plant response rating, Foxtail, Green",[17]; [29],100
same,"Foxtail, Green plant response rating",[17]; [30],100
same,"Plant response rating, Foxtail, Green",[18]; [31],50
same,"Plant response rating, Foxtail, Green",[18]; [32],90
same,"Plant response rating, Wheat",[19]; [31],20
same,"Plant response rating, Wheat",[19]; [32],50
same,"Plant response rating, Sedge, Umbrella (Flood)",[20],98
same,"Plant response rating, Barnyardgrass",[21]; [29],100
same,Barnyardgrass plant response rating,[21]; [30],90
same,"Plant response rating, Corn",[22]; [29],0
same,Corn plant response rating,[22]; [30],0
same,"Plant response rating, Ragweed",[23]; [29],100
same,Ragweed plant response rating,[23]; [30],60
same,"Plant response rating, Wheat",[24]; [29],80
same,Wheat plant response rating,[24]; [30],0
same,"Plant response rating, Blackgrass",[25]; [31],50
same,"Plant response rating, Blackgrass",[25]; [32],90
same,"Plant response rating, Barnyardgrass",[26]; [31],30
same,"Plant response rating, Barnyardgrass",[26]; [32],60
same,"Plant response rating, Oat, Wild",[27]; [29],80
same,"Oat, Wild plant response rating",[27]; [30],20
same,"Plant response rating, Rice (Flood)",[28],0
CC(C)c1ncn(-c2ccc(OS(C)(=O)=O)c(C(=O)N3C[C@H](C)Oc4c(Cl)cccc43)c2)n1 [Compound 338],"Ryegrass, Italian plant response rating",[1]; [33],100
same,"Plant response rating, Ryegrass, Italian",[1]; [34],90
same,Blackgrass plant response rating,[2]; [33],80
same,"Plant response rating, Blackgrass",[2]; [34],20
same,"Plant response rating, Soybean",[3]; [35],100
same,"Plant response rating, Soybean",[3]; [36],100
same,"Plant response rating, Ducksalad (Flood)",[4],40
same,"Plant response rating, Corn",[5]; [35],80
same,"Plant response rating, Corn",[5]; [36],80
same,"Pigweed, Palmer plant response rating",[6]; [33],100
same,"Plant response rating, Pigweed, Palmer",[6]; [34],100
same,"Plant response rating, Galium",[7]; [35],100
same,"Plant response rating, Galium",[7]; [36],100
same,"Plant response rating, Oat, Wild",[8]; [35],20
same,"Plant response rating, Oat, Wild",[8]; [36],20
same,"Plant response rating, Pigweed, Palmer",[9]; [35],100
same,"Plant response rating, Pigweed, Palmer",[9]; [36],90
same,Kochia plant response rating,[10]; [33],100
same,"Plant response rating, Kochia",[10]; [34],60
same,Soybean plant response rating,[11]; [33],80
same,"Plant response rating, Soybean",[11]; [34],30
same,"Plant response rating, Ryegrass, Italian",[12]; [35],80
same,"Plant response rating, Ryegrass, Italian",[12]; [36],70
same,"Plant response rating, Ragweed",[13]; [35],40
same,"Plant response rating, Ragweed",[13]; [36],30
same,"Plant response rating, Kochia",[14]; [35],100
same,"Plant response rating, Kochia",[14]; [36],90
same,"Plant response rating, Barnyardgrass (Flood)",[15],10
same,"Plant response rating, Horseweed",[16]; [35],20
same,"Plant response rating, Horseweed",[16]; [36],10
same,"Foxtail, Green plant response rating",[17]; [33],100
same,"Plant response rating, Foxtail, Green",[17]; [34],90
same,"Plant response rating, Foxtail, Green",[18]; [35],70
same,"Plant response rating, Foxtail, Green",[18]; [36],30
same,"Plant response rating, Wheat",[19]; [35],40
same,"Plant response rating, Wheat",[19]; [36],20
same,"Plant response rating, Sedge, Umbrella (Flood)",[20],45
same,Barnyardgrass plant response rating,[21]; [33],100
same,"Plant response rating, Barnyardgrass",[21]; [34],60
same,Corn plant response rating,[22]; [33],50
same,"Plant response rating, Corn",[22]; [34],10
same,Ragweed plant response rating,[23]; [33],0
same,"Plant response rating, Ragweed",[23]; [34],0
same,Wheat plant response rating,[24]; [33],20
same,"Plant response rating, Wheat",[24]; [34],0
same,"Plant response rating, Blackgrass",[25]; [35],70
same,"Plant response rating, Blackgrass",[25]; [36],40
same,"Plant response rating, Barnyardgrass",[26]; [35],70
same,"Plant response rating, Barnyardgrass",[26]; [36],30
same,"Oat, Wild plant response rating",[27]; [33],50
same,"Plant response rating, Oat, Wild",[27]; [34],30
same,"Plant response rating, Rice (Flood)",[28],10
